What was measured:
Test in all cases: UV-Vis titration (D/Δεapp vs D plot)
Settings in all cases: phosphate buffer 50 mM pH 7.4 (Figure 2; methods say 100 mM), 25 °C, 4a 50 μM
[1] = test system: [Poly(dA)-Poly(dT)] (DNA, polymer) A/T
[2] = test system: GC Box [Poly(dGGGCGG)-Poly(dCCCGCC)] (DNA, polymer) GGGCGG/CCGCCC
[3] = test system: AT Box [Poly(dTATAAT)-Poly(dATATTA)] (DNA, polymer) TATAAT/ATTATA
[4] = test system: [Poly(dG)-Poly(dC)] (DNA, polymer) G/C

- Kb [1]: 9080 M⁻¹
- Kb [2]: 1910 M⁻¹
- Kb [3]: 9710 M⁻¹
- Kb [4]: 1150 M⁻¹
SMILES: N[C@@H](CCCCN1C(=O)c2cccc3cccc(c23)C1=O)C(=O)NCCNC(=O)[C@@H](N)CCCCN1C(=O)c2cccc3cccc(c23)C1=O

From PMC6017805 (2018)
